Reference: patent publication US12291522B2, “Galectin-3 inhibitors” (BRISTOL-MYERS SQUIBB COMPANY, priority 2020, dated 2025)
Where two headings read alike, the source gives them in different places.

Columns and labels:
[1] = target: T1, Gal3 (Human Galectin-3) in THP-1 cells (Homo sapiens, UniProt P17931); test: ELISA Gal3 Degradation Assay in THP-1 Cells; format: cell-based; conditions: 48 hours, culture media Gal3 by ELISA
T1 construct: host or cells: THP-1
Method: [formula] ELISA Gal3 Degradation Assay in THP-1 Cells
THP-1 cells (ATCC, Cat #TIB-202), a human monocyte cell line derived from leukemia were plated at 2E6 cells/mL in 200 uL/well of RPMI 1640 (ThermoFisher, Cat #11835) in 96-well plates. Cells were treated with DMSO as a control and various concentrations of compounds for 48 hours. After the treatment, the culture media were collected. The PBS washed cell pellets were lysed in Lysis Buffer (Cell Signaling, Cat #9803) supplemented with 1XProtease Inhibitor Cocktail (Cell Signaling, Cat #5872). Gal3 levels in culture media and cell lysates were quantified by ELISA assays (Human Galectin-3 DuoSet ELISA kit, R&D Systems, Cat #DY1154) according to manufacturer's instructions. The cell culture media were also used for the assessment of cellular toxicity (LDH Assay kit, R&D Systems, DY994). The IC50 (degradation concentration at 50%) values were calculated based on the cellular Gal3 protein levels using DMSO as the control.

[2] = target: His-tagged recombinant human Gal-3 (hGal-3) (Homo sapiens, UniProt P17931); test: Gal-3 HTRF assay (His-tagged hGal-3 / B-ASF); format: binding; conditions: 15 nM hGal-3, 15 nM B-ASF
Method: ASSAY BUFFER Composition: 25 mM HEPES, 100 mM NaCl, 0.005% Tween 20, 0.05% BSA prepared in sterile water (all reagents from Sigma).
• Positive Control: 100% DMSO (1 μL)+His-tagged hGal-3 (20 μL)+B-ASF (20 μL)+Anti-His Terbium Antibody (5 μL)+Strep d2 Antibody (5 μL). • Negative Control: 100% DMSO (1 μL)+His-tagged hGal-3 (20 μL)+Anti His Terbium Antibody (5 μL)+Strep d2 Aantibody (5 μL). Stocks Preparation:
PROTOCOL: The Gal-3 assays were performed in 384 white Opti plates in three replicates at room temperature with gentle shaking at 250-300 rpmFrom the original stocks, […] working stock concentrations of His-tagged recombinant human Gal-3 (hGal-3) and that of B-ASF were prepared. From the working stock, 20 μL of hGal-3 (15 nM) and 20 μL B-ASF (15 nM) were added to the plates. In Negative Control, only hGal-3 was added. A concentration range of 50× working stocks were prepared for the compounds in 100% DMSO. Aliquots of luL of the compounds were added to the wells and pre-incubated with 20 μL hGal-3 per well for 30 minutes Then 20 μL B-ASF wereadded and incubated for another 1 hour. To detect the signal, 5 μL (final conc. of 1.0 nM) terbium labelled Anti-His antibody was added and incubated for 30 min followed by adding 5 μL (final conc. of 20 nM) Streptavidin d2 and incubation for another 1 hour. The assay signal was detected using HTRF screen protocol (Excitation wavelength=340 nm, emission wavelength=615 nm/665 nm) on Envision 2104 Multilabel Reader. Data analysed using Toolset and Curve Master. Results are reported in the experimental section (IC50 in μM).

[3] = target: T2, hCRBN (NanoLuc-CRBN fusion construct in HEK-293 cells) (Homo sapiens, UniProt Q96SW2); test: CRBN BRET Target Engagement; format: cell-based; conditions: NanoLuc-CRBN transfected HEK-293 cells, BRET with CRBN Probe
T2 construct: expressed in transfected cells; host or cells: HEK-293
Method: CRBN BRET Target Engagement (hCRBN IC50 (μM))
NanoLuc-CRBN fusion construct was transfected in HEK-293 cells using FuGENE HD (Promega) according to the manufacturer's protocol. In brief, Nluc-CRBN was diluted into Transfection Carrier DNA (Promega) 1:10 (mass/mass), to which FuGENE HD was 1:3 (μg DNA:μL FuGENE HD). One part (vol) of DNA:FuGENE HD complexes were combined with 20 parts (vol) of HEK-293 cells suspended at a density of […]. Cells were incubated for ˜20 hr at 37° C./5% CO2. Following transfection, cells were washed and resuspended at 200,000 cells/mL in OptiMEM without phenol red (Gibco).
For BRET measurements, cells were seeded in a 384-well nonbinding surface plate (Corning) plate for a final count of 10,000 cells/well. Compounds were dissolved at 10 mM in dimethylsulfoxide (DMSO) and evaluated at eleven concentrations using a high concentration of […]. CRBN Probe was used for equilibrium measurements, employing a final concentration of approximately EC50-80. For live-cell measurements, 20 nM of CRBN Probe was added. For the live-cell assay conditions, the plates were incubated for 2 hours at 37° C./5% CO2. NanoBRET NanoGlo Substrate and Extracellular Nanoluc Inhibitor (Promega) were added according to manufacturer's guidelines. For lytic cell measurements, digitonin was added to the cells to a final concentration of 50 μg/mL and 20 nM of CRBN Probe was added. To measure NanoBRET in permeabilized cells, extracellular Nluc inhibitor was omitted during the detection step. For all BRET experiments, the Envision 2015 (Perkin Elmer) equipped with a BRET2 Enh mirror, BRET 647 nM/75 nM Bandwidth and BC703 460 nM/80 nM Bandwidth filters was used for readouts. Each read was integrated for 0.5 s.
To determine compound potency (IC50), BRET ratios for each dilution series was first normalized to a % Inhibition value via Equation 1, where “S” represents Sample BRET, “B” represents Background BRET, and “T” represents Total BRET. In this equation, the background control (B) consists of NanoLuc-CRBN expressing cells and no CRBN Probe. The total BRET Ratio (T) consists of NanoLuc-CRBN expressing cells, CRBN Probe, and an amount of DMSO at a concentration equivalent to that added when testing compounds.
Following normalization, the percent inhibition values are plotted as a function of compound concentration and fit to Equation 2. […]

[4] = test 1, read-out: Supernatant (IC50) test 1
[5] = test 2, read-out: Supernatant (IC50) test 2

T2 sequence (Q96SW2 whole entry, the tested form may be a part): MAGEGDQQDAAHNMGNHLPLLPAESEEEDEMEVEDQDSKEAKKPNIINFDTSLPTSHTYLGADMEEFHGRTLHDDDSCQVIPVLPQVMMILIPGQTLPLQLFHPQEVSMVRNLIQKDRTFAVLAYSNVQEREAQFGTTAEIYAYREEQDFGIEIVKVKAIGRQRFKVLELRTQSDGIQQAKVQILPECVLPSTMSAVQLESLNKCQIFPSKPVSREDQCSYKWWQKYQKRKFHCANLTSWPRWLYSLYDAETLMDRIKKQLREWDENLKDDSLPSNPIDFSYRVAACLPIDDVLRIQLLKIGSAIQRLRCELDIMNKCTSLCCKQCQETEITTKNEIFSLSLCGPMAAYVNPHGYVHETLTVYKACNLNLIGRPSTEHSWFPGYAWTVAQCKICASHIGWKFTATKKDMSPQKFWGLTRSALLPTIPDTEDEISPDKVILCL
Chain of His-tagged recombinant human Gal-3 (hGal-3) (P17931 whole entry): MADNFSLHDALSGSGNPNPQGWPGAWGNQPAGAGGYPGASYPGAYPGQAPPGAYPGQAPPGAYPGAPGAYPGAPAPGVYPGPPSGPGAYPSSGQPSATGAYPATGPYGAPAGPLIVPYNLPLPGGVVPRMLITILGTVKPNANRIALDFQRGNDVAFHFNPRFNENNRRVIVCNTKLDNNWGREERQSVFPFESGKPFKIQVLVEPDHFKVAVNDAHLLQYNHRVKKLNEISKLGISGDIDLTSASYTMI
T1 sequence (P17931 whole entry): as above

IC50 [1, 4] [µM]	IC50 [1, 5] [µM]	IC50 [2] [µM]	IC50 [3] [µM]	Compound
0.035	0.027	0.04	1.27	Cc1nc([C@@H]2O[C@H](CO)[C@H](O)[C@H](n3cc(-c4cc(F)c(Cl)c(F)c4)nn3)[C@H]2OCC(=O)N2CC(COc3ccc(C(=O)Nc4ccc5c(c4)C(=O)N(C4CCC(=O)NC4=O)C5)cc3)C2)n(-c2cc(Cl)ccc2C(F)(F)F)n1 (stereo partly drawn) [Example 11, 4-((1-(2-(((2S,3R,4S,5R,6R)-2-(1-(5-Chloro-2-(trifluoromethyl)phenyl)-3-methyl-1H-1,2,4-triazol-5-yl)-4-(4-(4-chloro-3,5-difluorophenyl)-1H-1,2,3-triazol-1-yl)-5-hydroxy-6-(hydroxymethyl)tetrahydro-2H-pyran-3-yl)oxy)acetyl)azetidin-3-yl)methoxy)-N-(2-(2,6-dioxopiperidin-3-yl)-3-oxoisoindolin-5-yl)benzamide]
0.013	0.014	0.22	0.11	Cc1nc([C@@H]2O[C@H](CO)[C@H](O)[C@H](n3cc(-c4cc(F)c(Cl)c(F)c4)nn3)[C@H]2OCC(=O)N[C@H]2C[C@H](Oc3ccc(C(=O)Nc4ccc5c(c4)CN(C4CCC(=O)NC4=O)C5=O)nc3)C2)n(-c2cc(Cl)ccc2C(F)(F)F)n1 (some centres unmarked) [Example 18]
1.04	0.023	0.07	0.93	Cc1nc([C@@H]2O[C@H](CO)[C@H](O)[C@H](n3cc(-c4cc(F)c(Cl)c(F)c4)nn3)[C@H]2OCC(=O)N[C@H]2C[C@@H](Oc3ccc(C(=O)Nc4cccc5c4CN(C4CCC(=O)NC4=O)C5=O)nc3)C2)n(-c2cc(Cl)ccc2C(F)(F)F)n1 (some centres unmarked) [Example 21]
0.019	< 0.01	0.042	0.07	Cc1nc([C@@H]2O[C@H](CO)[C@H](O)[C@H](n3cc(-c4cc(F)c(Cl)c(F)c4)nn3)[C@H]2OCC(=O)N[C@H]2C[C@@H](Oc3ccc(C(=O)Nc4ccc5c(c4)C(=O)N(C4CCC(=O)NC4=O)C5)nc3)C2)n(-c2cc(Cl)ccc2C(F)(F)F)n1 (some centres unmarked) [Example 23]
1.7	0.522	0.139	2.69	Cc1nc([C@@H]2O[C@H](CO)[C@H](O)[C@H](n3cc(-c4cc(F)c(Cl)c(F)c4)nn3)[C@H]2OCCOc2ccc(C(=O)Nc3ccc4c(c3)CN(C3CCC(=O)NC3=O)C4=O)cc2)n(-c2cc(Cl)ccc2C(F)(F)F)n1 (some centres unmarked) [Example 25]
0.009	0.009	0.085	0.251	Cc1nc([C@@H]2O[C@H](CO)[C@H](O)[C@H](n3cc(-c4cc(F)c(Cl)c(F)c4)nn3)[C@H]2OCC(=O)N2CC(COc3ccc(C(=O)Nc4ccc5c(c4)CN(C4CCC(=O)NC4=O)C5=O)nc3)C2)n(-c2cc(Cl)ccc2C(F)(F)F)n1 (some centres unmarked) [Example 26]
	0.04	0.312	0.374	Cc1nc([C@@H]2O[C@H](CO)[C@H](O)[C@H](n3cc(-c4cc(F)c(Cl)c(F)c4)nn3)[C@H]2OCC(=O)N2CCC(COc3ccc(C(=O)Nc4ccc5c(c4)CN(C4CCC(=O)NC4=O)C5=O)cc3)CC2)n(-c2cc(Cl)ccc2C(F)(F)F)n1 (some centres unmarked) [Example 27]
0.854	0.05	0.086	10.6	Cc1nc([C@@H]2O[C@H](CO)[C@H](O)[C@H](n3cc(-c4cc(F)c(Cl)c(F)c4)nn3)[C@H]2OCC(=O)N2CC(COc3ccc(C(=O)Nc4cccc5c4CN(C4CCC(=O)NC4=O)C5=O)cc3)C2)n(-c2cc(Cl)ccc2C(F)(F)F)n1 (some centres unmarked) [Example 30]
0.05	0.014	0.139	0.447	Cc1nc([C@@H]2O[C@H](CO)[C@H](O)[C@H](n3cc(-c4cc(F)c(Cl)c(F)c4)nn3)[C@H]2OCC(=O)N2CCC(Oc3ccc(C(=O)Nc4ccc5c(c4)CN(C4CCC(=O)NC4=O)C5=O)cc3)CC2)n(-c2cc(Cl)ccc2C(F)(F)F)n1 (some centres unmarked) [Example 31]
1.25	1.58	0.094	13.7	Cc1nc([C@@H]2O[C@H](CO)[C@H](O)[C@H](n3cc(-c4cc(F)c(Cl)c(F)c4)nn3)[C@H]2OCC(=O)N2CC(COc3ccc(C(=O)Nc4cccc5c4CN(C4CCC(=O)NC4=O)C5=O)nc3)C2)n(-c2cc(Cl)ccc2C(F)(F)F)n1 (some centres unmarked) [Example 32]
4.58	0.21	0.11	1.02	Cc1nc([C@@H]2O[C@H](CO)[C@H](O)[C@H](n3cc(-c4cc(F)c(Cl)c(F)c4)nn3)[C@H]2OCC(=O)N2CC3(CC(Oc4ccc(C(=O)Nc5ccc6c(c5)CN(C5CCC(=O)NC5=O)C6=O)cc4)C3)C2)n(-c2cc(Cl)ccc2C(F)(F)F)n1 (some centres unmarked) [Example 34]
0.314	0.338	0.077	0.498	Cc1nc([C@@H]2O[C@H](CO)[C@H](O)[C@H](n3cc(-c4cc(F)c(Cl)c(F)c4)nn3)[C@H]2OCC(=O)N2CC(Oc3ccc(C(=O)Nc4ccc5c(c4)CN(C4CCC(=O)NC4=O)C5=O)nc3)C2)n(-c2cc(Cl)ccc2C(F)(F)F)n1 (some centres unmarked) [Example 35]
